In PMC7433010, “Exploration of multi‐target effects of 3‐benzoyl‐5‐hydroxychromen‐2‐one in Alzheimer’s disease cell and mouse models” (Aging Cell, 2020):

Legend:
ΔK280 TauRD‐DsRed = molecular target: T1, ΔK280 TauRD‐DsRed (Homo sapiens, UniProt P10636, DEL597-597); test: ∆K280 TauRD‐DsRed fluorescence assay (Tau misfolding) in 293 cells; type: cell-based; details: 3 days
T1 construct: containing residues 244–372 of the full‐length 4R2N Tau441; expressed in transfected cells; host or cells: Tet-On 293 cells, doxycycline-induced (pcDNA5/FRT/TO/TauRD-DsRed)
Source text: In ∆K280 TauRD‐DsRed 293 cells, a proaggregant (ΔK280) Tau repeat domain (TauRD) containing residues 244–372 of the full‐length 4R2N Tau441 was fused in‐frame with DsRed fluorophore. Compared to the wild‐type TauRD, the poorly folded ΔK280 TauRD formed aggregates, which adversely affected the folding of fused DsRed and thus decreased DsRed fluorescence, as also evidenced by increase in thioflavin S fluorescence emission (Chang et al., 2017). Thioflavin S is a reporter dye for studies of Tau toxicity and pharmacologic prevention in cell model of tauopathy (Pickhardt et al., 2017). It binds to amyloid fibrils but not monomers and gives a distinct increase in fluorescence emission. Inhibition of Tau aggregation may improve DsRed misfolding, leading to increased fluorescence in ΔK280 TauRD‐DsRed‐expressing cells. […] In the following experiments, DsRed fluorescence was measured in wells containing at least 80% viable cells. […]
DsRed fluorescence of proaggregant ∆K280 TauRD-DsRed 293 cells was evaluated to reflect Tau aggregation. […] Thioflavin S images (FITC 543 nm excitation and 593 nm emission) were captured and analyzed as described. In general, 2 × 10^4 cells in each biological replicate were analyzed.
Figure S2. ΔK280 TauRD-DsRed 293 cells. […] DsRed/thioﬂavin S fluorescence, ROS, and caspase 3 activity were assessed on day 5. […] (c) Dose response curves of LM-031 based on DsRed fluorescence measurement. […]

[1] = molecular target: T2, His‐tagged ∆K280 TauRD protein (Homo sapiens, UniProt P10636, DEL597-597); test: TEM examination of ΔK280 TauRD aggregates; type: biochemical; details: 10 µM
T2 construct: containing residues 244–372 of the full‐length 4R2N Tau441; added start Met (ATG codon in forward primer) (N); made in house; host or cells: E. coli BL21(DE3)pLysS
Source text: For TauRD aggregation examination, the samples of formed fibrils without or with compound addition were placed on a 200-Mesh copper (holey-carbon) grid and viewed on a JEM-1230 transmission electron microscope (JEOL, Tokyo, Japan) at an accelerating voltage of 100 kV.
Figure S3. TauRD-His proteins and Tau aggregation monitored by thioflavin T fluorescence and TEM. (a) SDS-PAGE gel (left) and Western blot (right) of wild type (WT) and ΔK280 TauRD proteins from IPTG-induced bacterial cells. Wild type clone #3 and ΔK280 clone #2 (marked in red) were selected to prepare purified proteins for thioflavin T and TEM studies. (b) Thioflavin T binding assay for TauRD aggregation. TauRD protein (20 μM in 50 μl buffer) was incubated with congo red, licochalcone A, or LM compounds (1−10 μM) at 37°C for 48 h, and aggregation was monitored by measuring thioflavin T fluorescence intensity (n = 3). p values: comparisons between 0 h and 48 h (^###: p < 0.001), wild type versus ΔK280 (^&&&: p < 0.001), or with and without compound addition (**: p < 0.01, ***: p < 0.001). (one-way ANOVA with a post hoc Tukey test) (c) TEM examination of ΔK280 TauRD aggregation without or with congo red and LM-004 (10 μM) addition.

T2 sequence (P10636 with tags, fused parts or gaps isoform P10636-8 DEL280-280): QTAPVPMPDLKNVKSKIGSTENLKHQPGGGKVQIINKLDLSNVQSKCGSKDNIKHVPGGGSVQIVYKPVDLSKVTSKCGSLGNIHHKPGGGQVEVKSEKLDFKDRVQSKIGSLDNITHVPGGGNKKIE
T1 sequence (P10636 with tags, fused parts or gaps isoform P10636-8 DEL280-280): as above

| SMILES | ∆K280 TauRD‐DsRed fluorescence (ΔK280 TauRD‐DsRed; 1 µM, untreated cells = 100%) | Tau aggregates by TEM [1] | ∆K280 TauRD‐DsRed fluorescence (ΔK280 TauRD‐DsRed; 10 µM, no treatment = 100%) |
| --- | --- | --- | --- |
| C=CC(C)(C)c1cc(/C=C/C(=O)c2ccc(O)cc2)c(OC)cc1O [licochalcone A, reference compound] | 105% |  |  |
| COc1ccc(C(=O)/C=C/c2cc(Br)ccc2O)cc1 [LM‐004] |  | reduced Tau aggregates |  |
| Nc1c(/N=N/c2ccc(-c3ccc(/N=N/c4cc(S(=O)(=O)O)c5ccccc5c4N)cc3)cc2)cc(S(=O)(=O)O)c2ccccc12 [congo red, reference compound] |  | reduced Tau aggregates | 108% |
